From PMC12527922, “Cocaine chemogenetics blunts drug-seeking by synthetic physiology” (Nature, 2025) come the findings set out here.

The assay concerns the target coca-5HT3 (α7(L141G,G175K,Y210F,Y217F)–5HT3) (Homo sapiens, UniProt P36544, G175K/L141G/Y210F/Y217F). The experiment in a line: Membrane potential assay, coca-5HT3 in HEK293. Conditions: for Max normalized Response / Response: coca-5HT3; for Max normalized Response: ED Fig 3b; for response at coca-5HT3: between 10-100 µM.
[1] abbreviates: membrane potential assay dose response.
[2] abbreviates: coca5HT3, Choline Conc 1.37174 uM.
Where [3] appears, read: coca5HT3, Choline Conc 12.3457 uM.
Setting [4] is: coca5HT3, Choline Conc 37.037 uM.
Where [5] appears, read: coca5HT3, Choline Conc 111.111 uM.
The mark [6] stands for this setting: coca5HT3, Choline Conc 333.333 uM.

Several values for one entry are separate records, joined by “and”; a condition that tells them apart may be missing. Identical values can stand only once.

coca-5HT3 (α7(L141G,G175K,Y210F,Y217F)–5HT3), sequence (P36544 23-224 L141G/G175K/Y210F/Y217F): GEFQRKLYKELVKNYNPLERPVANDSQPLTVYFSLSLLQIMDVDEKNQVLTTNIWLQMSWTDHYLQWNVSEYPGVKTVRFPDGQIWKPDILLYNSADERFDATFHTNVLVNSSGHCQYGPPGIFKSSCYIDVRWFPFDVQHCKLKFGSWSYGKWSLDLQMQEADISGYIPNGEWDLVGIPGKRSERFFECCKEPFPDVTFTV
coca-5HT3 (α7(L141G,G175K,Y210F,Y217F)–5HT3), sequence (P23979 242-489, further chain): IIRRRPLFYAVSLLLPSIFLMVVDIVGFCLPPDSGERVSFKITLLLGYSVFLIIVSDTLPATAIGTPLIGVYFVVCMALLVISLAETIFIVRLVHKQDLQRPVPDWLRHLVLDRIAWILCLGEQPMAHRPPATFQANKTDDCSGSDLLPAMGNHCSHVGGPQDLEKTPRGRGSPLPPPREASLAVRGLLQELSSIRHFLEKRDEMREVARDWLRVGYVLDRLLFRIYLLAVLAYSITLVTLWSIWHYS

As for `CC[N+]1(C)[C@@H]2CC(OC(=O)[C@H](CO)c3ccccc3)C[C@H]1[C@@H]1O[C@@H]12` (stereo partly shown) [Oxitroprium], the “Max normalized Response” value runs as follows: (conc 0.137 uM) 0.04923; (conc 3.7 uM) 0.04777; (conc 11.1 uM) 0.1339; (conc 33.3 uM) 0.03611; (conc 100 uM) 0.1339.

Regarding `C[N+]1(C)[C@@H]2CC[C@H]1C[C@@H](OC(=O)C(CO)c1ccccc1)C2` (stereo partly shown) [Methylatropine], the “response at coca-5HT3” value is “substantial response”. The “Max normalized Response” value (conc 0.137 uM) stood at 0.09159. Besides, the “Max normalized Response” value (conc 3.7 uM) came to 0.07315. Moreover, the “Max normalized Response” value (conc 11.1 uM) is on record as 0.365. Besides, under “conc 33.3 uM”, the “Max normalized Response” value is 0.7258. For the same compound, the “Max normalized Response” value (conc 100 uM) was found to be 0.936.

Take `NC[C@H](O)c1ccc(O)c(O)c1` [Norepinephrine]: the Response (conc 0.457247 uM, ED Fig 3a) came to 0.151; the Response (conc 1.37174 uM, ED Fig 3a) was 0.081; the Response (conc 12.3457 uM, ED Fig 3a) is given as 0.077; the Response (conc 37.037 uM, ED Fig 3a) came out at 0.059; the Response (conc 111.111 uM, ED Fig 3a) is on record as 0.059; the Response (conc 333.333 uM, ED Fig 3a) was 0.043.

Regarding `N[C@H](CO)C(=O)O` [D-serine], the Response came out at 0.104 (conc 0.457247 uM, ED Fig 3a); 0.061 (conc 1.37174 uM, ED Fig 3a); 0.037 (conc 12.3457 uM, ED Fig 3a); 0.062 (conc 37.037 uM, ED Fig 3a); 0.111 (conc 111.111 uM, ED Fig 3a); 0.06 (conc 333.333 uM, ED Fig 3a). This compound displayed a Response (conc 1000 uM, ED Fig 3a) of 0.145.

As for `N[C@@H](CCC(=O)O)C(=O)O` [Glutmate], the Response worked out at 0.109 (conc 0.457247 uM, ED Fig 3a); 0.069 (conc 1.37174 uM, ED Fig 3a); 0 (conc 12.3457 uM, ED Fig 3a); 0.041 (conc 37.037 uM, ED Fig 3a); 0.031 (conc 111.111 uM, ED Fig 3a); 0.048 (conc 333.333 uM, ED Fig 3a). The compound also displayed a Response (conc 1000 uM, ED Fig 3a) of 0.028.

In the case of `NCCCC(=O)O` [GABA], the Response (conc 0.457247 uM, ED Fig 3a) was found to be 0.157; the Response (conc 1.37174 uM, ED Fig 3a) is 0.099; the Response (conc 12.3457 uM, ED Fig 3a) stood at 0.041; the Response (conc 37.037 uM, ED Fig 3a) worked out at 0.055; the Response (conc 111.111 uM, ED Fig 3a) is 0.023; the Response (conc 333.333 uM, ED Fig 3a) was found to be 0.05. The same compound registered a Response (conc 1000 uM, ED Fig 3a) of 0.066.

On to `NCCc1c[nH]c2ccc(O)cc12` [Serotonin], for which the Response is, setting by setting: (conc 1.37174 uM, ED Fig 3a) 0.295; (conc 12.3457 uM, ED Fig 3a) 0.101; (conc 37.037 uM, ED Fig 3a) 0.082; (conc 111.111 uM, ED Fig 3a) 0.115; (conc 333.333 uM, ED Fig 3a) 0.156; (conc 1000 uM, ED Fig 3a) 0.112.

`CN1CC[C@]23c4c5ccc(O)c4O[C@H]2[C@@H](O)C=C[C@H]3[C@H]1C5` [morphine]: the Response is, setting by setting: (conc 0.0137 uM, ED Fig. 2c) 0.063; (conc 0.123 uM, ED Fig. 2c) 0.114; (conc 0.37 uM, ED Fig. 2c) 0.04; (conc 10 uM, ED Fig. 2c) 0.069; (conc 30 uM, ED Fig. 2c) 0.121. The “activation of coca-5HT3” value under setting [1] is “did not activate”.

Turning to `C[N+]1(C)[C@@H]2C[C@@H](OC(=O)[C@H](CO)c3ccccc3)C[C@H]1[C@@H]1O[C@@H]12` [Methscopolamine], the “Max normalized Response” value (conc 0.137 uM) is recorded as 0.01611; the “Max normalized Response” value (conc 3.7 uM) came out at 0.08959; the “Max normalized Response” value (conc 11.1 uM) worked out at 0.03432; the “Max normalized Response” value (conc 33.3 uM) worked out at 0.1141; the “Max normalized Response” value (conc 100 uM) is listed as 0.3973.

On to `NCCc1ccc(O)c(O)c1` [Dopamine], for which the Response (conc 0.457247 uM, ED Fig 3a) was 0.119; the Response (conc 1.37174 uM, ED Fig 3a) is 0.062; the Response (conc 12.3457 uM, ED Fig 3a) turned out to be 0.04; the Response (conc 37.037 uM, ED Fig 3a) is 0.017; the Response (conc 111.111 uM, ED Fig 3a) is recorded as 0.052; the Response (conc 333.333 uM, ED Fig 3a) is 0.039. This compound yielded a Response (conc 1000 uM, ED Fig 3a) of 0.106.

`O=C(O[C@H]1C[C@H]2CC[C@@H](C1)[N+]21CCCC1)C(O)(c1ccccc1)c1ccccc1` [Trospium]: the “Max normalized Response” value by setting is: (conc 0.137 uM) 0.127; (conc 3.7 uM) 0.2063; (conc 11.1 uM) 0.1005; (conc 33.3 uM) 0.1217; (conc 100 uM) 0.03704.

Take `CN[C@@H](C)Cc1ccccc1` [methamphetamine]: the Response stood at 0.198 (conc 0.0137 uM, ED Fig. 2c); 0.256 (conc 0.123 uM, ED Fig. 2c); 0.136 (conc 0.37 uM, ED Fig. 2c); 0.224 (conc 10 uM, ED Fig. 2c); 0.204 (conc 30 uM, ED Fig. 2c). For the same compound, the “activation of coca-5HT3” value under setting [1] is “did not activate”.

Regarding `CCN(CC)CCOC(=O)c1ccc(N)cc1` [Procaine], the “Max normalized Response” value by setting is: (conc 0.137 uM) 0.07766; (conc 3.7 uM) 0.1325; (conc 11.1 uM) 0.1562; (conc 33.3 uM) 0.143; (conc 100 uM) 0.166. Further, for the setting “up to 100 µM”, the “activation of coca-5HT3” value is given as “did not activate”.

Consider `CCN(CC)CC(=O)Nc1c(C)cccc1C` [Lidocaine], for which the “Max normalized Response” value is, setting by setting: (conc 0.137 uM) 0.1106; (conc 3.7 uM) 0.1119; (conc 11.1 uM) 0.1369; (conc 33.3 uM) 0.1879; (conc 100 uM) 0.1519. Further, the “activation of coca-5HT3” value (up to 100 µM) is recorded as “did not activate”.

`N[C@@H](CC(=O)O)C(=O)O` [Aspartate] returned a Response (conc 0.457247 uM, ED Fig 3a) of 0.065; a Response (conc 1.37174 uM, ED Fig 3a) of 0.034; a Response (conc 12.3457 uM, ED Fig 3a) of 0.025; a Response (conc 37.037 uM, ED Fig 3a) of 0.074; a Response (conc 111.111 uM, ED Fig 3a) of 0.072; a Response (conc 333.333 uM, ED Fig 3a) of 0.088. The same compound displayed a Response (conc 1000 uM, ED Fig 3a) of 0.232.

Turning to `CC(N)Cc1ccccc1` (stereo not shown) [amphetamine], the Response by setting is: (conc 0.0137 uM, ED Fig. 2c) 0.05; (conc 0.123 uM, ED Fig. 2c) 0.058; (conc 0.37 uM, ED Fig. 2c) 0.049; (conc 10 uM, ED Fig. 2c) 0.028; (conc 30 uM, ED Fig. 2c) 0.055. For the same compound, the “activation of coca-5HT3” value under setting [1] is listed as “did not activate”.

`CN1[C@@H]2CC[C@H]1C[C@@H](OC(c1ccccc1)c1ccccc1)C2` [Benztropine]: the “response at coca-5HT3” value was “substantial response”. For the same compound, the “Max normalized Response” value (conc 0.137 uM) is listed as 0.05732. Where the note is “conc 3.7 uM”, the “Max normalized Response” value is 0.1399. The “Max normalized Response” value (conc 11.1 uM) is given as 0.2931. Also, where the note is “conc 33.3 uM”, the “Max normalized Response” value worked out at 0.5901. For the same compound, the “Max normalized Response” value (conc 100 uM) is on record as 1.051.

On to `CNC[C@H](O)c1ccc(O)c(O)c1` [Epinephrine], for which the Response was 0.136 (conc 0.457247 uM, ED Fig 3a); 0.141 (conc 1.37174 uM, ED Fig 3a); 0.06 (conc 12.3457 uM, ED Fig 3a); 0.029 (conc 37.037 uM, ED Fig 3a); 0.188 (conc 111.111 uM, ED Fig 3a).

As to `CCCCC/C=C\C/C=C\C/C=C\C/C=C\CCCC(=O)NCCO` [Anandamide], the Response by setting is: (conc 0.457247 uM, ED Fig 3a) 0.053; (conc 1.37174 uM, ED Fig 3a) 0.085; (conc 12.3457 uM, ED Fig 3a) 0.046; (conc 37.037 uM, ED Fig 3a) 0.011; (conc 111.111 uM, ED Fig 3a) 0.073; (conc 333.333 uM, ED Fig 3a) 0.021. The Response (conc 1000 uM, ED Fig 3a) is listed as 0.149.

As to `CCCC[N+]1(C)[C@@H]2C[C@@H](OC(=O)[C@H](CO)c3ccccc3)C[C@H]1[C@@H]1O[C@@H]12` (stereo partly shown) [n-Butylscopolamine], the “Max normalized Response” value (conc 0.137 uM) came out at 0.07428; the “Max normalized Response” value (conc 3.7 uM) was found to be 0.05731; the “Max normalized Response” value (conc 11.1 uM) came out at 0.07366; the “Max normalized Response” value (conc 33.3 uM) is recorded as 0.04125; the “Max normalized Response” value (conc 100 uM) was 0.03532.

In general, EC50 refers to the concentration at which the effect is half-maximal. Low values mean higher potency in that assay, high ones lower potency in that assay. Regarding `C[N+](C)(C)CCO` [choline], the “EC50 relative to peak physiological levels” value (EC50 above peak physiological levels) was “about 100 fold”. In addition, the “Max normalized response, AVG” value reads like this: under setting [2], 0.0611; under setting [3], 0.06296; under setting [4], 0.0516; under setting [5], 0.04734; under setting [6], 0.07674; (coca5HT3, Choline Conc 1000 uM) 0.4005. The “Max normalized response, AVG” value (coca5HT3, Choline Conc 3000 uM) is 1. Also, the “Max normalized response, replicates” value by setting is: under setting [2], 0.1043 and 0.06655 and 0.04444 and 0.02913; under setting [3], 0.05773 and 0.04496 and 0.02778 and 0.1214; under setting [4], 0.04283 and 0.03237 and 0.07778 and 0.0534; under setting [5], 0.03724 and 0.04317 and 0.05556 and 0.0534; under setting [6], 0.0838 and 0.08993 and 0.05556 and 0.07767; (coca5HT3, Choline Conc 1000 uM) 0.4022 and 0.5288 and 0.3556 and 0.3155. Also, the “Max normalized response, replicates” value (coca5HT3, Choline Conc 3000 uM) is on record as 1. The “Response, dose-response replicates (DR 1-4)” value by setting is: under setting [2], 0.056 and 0.037 and 0.008 and 0.006; under setting [3], 0.031 and 0.025 (2×) and 0.005; under setting [4], 0.023 and 0.018 and 0.014 and 0.011; under setting [5], 0.02 and 0.024 and 0.01 and 0.011; under setting [6], 0.045 and 0.05 and 0.01 and 0.016; (coca5HT3, Choline Conc 1000 uM) 0.216 and 0.294 and 0.064 and 0.065. The “Response, dose-response replicates (DR 1-4)” value (coca5HT3, Choline Conc 3000 uM) was 0.537 and 0.556 and 0.18 and 0.206. Also, the “max response of each dose-response replicate” value (coca5HT3, Choline, used for normalization) is 0.537 and 0.556 and 0.18 and 0.206. In addition, the EC50 (half-maximum effective concentration (EC50), HEK293, fluorescence membrane potential assay) is 1210 µM.
